Values of other authors as cited in US11426447B2, “Neuregulin for the treatment of tumors of the nervous system” (LEIBNIZ-INSTITUT FUR …, priority 2016, dated 2022).

System: schwannoma
Details: cited from earlier work

For bevacizumab, the “efficacy for schwannoma growth control and hearing improvement” value (NF2 patients (Plotkin et al., 2009)) is given as “limited efficacy” and the side effects (human, in vivo) is given as “severe side effects”.
